Patent US4496546A, “Erythromycin D and esters thereof” (Pfizer Inc., priority 1982, dated 1985)
Converted amounts (≈) assume the structure as drawn. Where two headings read alike, the source gives them in different places.

Assays:
Strep. faec. 006 = assay: in vitro MIC, tube serial dilution, 24 hour incubation; assay type: cell-based
Experimental: (§1) Table I summarizes the results of in vitro MIC (minimum inhibitory concentration) tests. For this standard test, each organism is inoculated into a series of tubes containing nutrient medium and serially diluted concentrations of the antibiotic. The MIC is the lowest concentration of antibiotic which prevents growth of the microorganism over the 24 hour incubation test period.

Neiss. Sicca 000 = assay: as above; assay type: cell-based
Experimental: as §1

Hem. influ. 012 = assay: as above; assay type: cell-based
Experimental: as §1

Hem. influ. 036 = assay: as above; assay type: cell-based
Experimental: as §1

Staph. aureus 005 = assay: as above; assay type: cell-based
Experimental: as §1

Staph. aureus 400 = assay: as above; assay type: cell-based
Experimental: as §1

E. Coli 470 = assay: as above; assay type: cell-based; conditions: Escherichia coli
Experimental: as §1

Past. mult. 001 = assay: as above; assay type: cell-based
Experimental: as §1

Strep. pneum. 012 = assay: as above; assay type: cell-based
Experimental: as §1

Strep. pyog. 203 = assay: as above; assay type: cell-based
Experimental: as §1

Staph. epid. 111 = assay: as above; assay type: cell-based
Experimental: as §1

Staph. aureus 052 = assay: as above; assay type: cell-based
Experimental: as §1

Strep pyogenes 203 = assay: in vivo oral protection against acute experimental infection in mice; conditions: Mus musculus, read-out: PD50
Text: (§2) In determining such activity, acute experimental infections are produced in mice by the intraperitoneal inoculation of the mice with a standardized culture of the test organism suspended in 5 percent hog gastric mucin. Infection severity is standardized so that the mice receive at least one LD100 dose of the organism (LD100 : the minimum inoculum of organism required to consistently kill 100 percent of the infected, nontreated control mice). The test compound is orally administered at various dosage levels to groups of infected mice at 1/2, 4 and 24 hours post infection. At the end of the test, the activity of the mixture is assessed by counting the number of survivors among treated animals at a given dose. Activity is expressed as the percentage of animals which survive at a given dose, or calculated as a PD50 (dose which protects 50% of the animals from infection).

Staph aureus 005 = assay: as above; conditions: read-out: PD50
Text: as §2

[1] = test system: Gram-positive and Gram-negative bacteria; assay: in vitro antibacterial activity (summary statement); assay type: cell-based; conditions: medium spectrum of Gram-positive and Gram-negative bacteria
Experimental: as §1

stability at acid pH = assay type: physicochemical; conditions: acid pH (2.5 to 5.0); unlike erythromycin A
sensitive bacteria = assay: in vivo activity against infections by sensitive bacteria (summary statement); conditions: mice, oral
Text: as §2

[2] = absorption via the oral route; assay type: in vivo
[3] = Strep. faec. 006, read-out: MIC
[4] = Neiss. Sicca 000, read-out: MIC
[5] = Staphylococcus aureus, 24 h, Staph. aureus 005, read-out: MIC
[6] = Staphylococcus aureus, 24 h, Staph. aureus 400, read-out: MIC
[7] = Strep. pneum. 012, read-out: MIC
[8] = Strep. pyog. 203, read-out: MIC
[9] = Staph. epid. 111, read-out: MIC
[10] = Staphylococcus aureus, 24 h, Staph. aureus 052, read-out: MIC
[11] = mice, Strep pyogenes 203, oral dosage 1/2, 4 and 24 hours post infection
[12] = Staphylococcus aureus, mice, Staph aureus 005, oral dosage 1/2, 4 and 24 hours post infection
[13] = Staphylococcus aureus, 400, 24 h

SMILES | MIC (Strep. faec. 006; [3]) [µg/mL] | MIC (Neiss. Sicca 000; [4]) [µg/mL] | MIC (Hem. influ. 012; Hem. influ. 012, read-out: MIC) [µg/mL] | MIC (Hem. influ. 036; Hem. influ. 036, read-out: MIC) [µg/mL] | MIC (Staph. aureus 005; [5]) [µg/mL] | MIC (Staph. aureus 400; [6]) [µg/mL] | MIC (E. Coli 470) [µg/mL] | MIC (Past. mult. 001; Past. mult. 001, read-out: MIC) [µg/mL] | MIC (Strep. pneum. 012; [7]) [µg/mL] | MIC (Strep. pyog. 203; [8]) [µg/mL] | MIC (Staph. epid. 111; [9]) [µg/mL] | MIC (Staph. aureus 052; [10]) [µg/mL] | ED50 (Strep pyogenes 203; [11]) [mg/kg] | ED50 (Staph aureus 005; [12]) [mg/kg] | MIC (Hem. influ. 012) [µg/mL] | MIC (Staph. aureus 400; [13]) [µg/mL] | MIC (E. Coli 470; E. Coli 470, read-out: MIC) [µg/mL] | other results
CCC1OC(=O)C(C)C(OC2CC(C)(O)C(OC(C)=O)C(C)O2)C(C)C(OC2OC(C)CC(N(C)C)C2O)C(C)(O)CC(C)C(=O)C(C)C(O)C1C (centres unmarked) [4"-O-Acetylerythromycin D] | 3.12 (≈ 4.18 µM) | 25 (≈ 33.5 µM) | 50 (≈ 67 µM) | > 50 | 3.12 (≈ 4.18 µM) | > 50 | 6.25 (≈ 8.38 µM) | 25 (≈ 33.5 µM) | 0.39 (≈ 0.523 µM) | 0.2 (≈ 0.268 µM) | 0.78 (≈ 1.05 µM) | 6.25 (≈ 8.38 µM) | 40 | 139 | – | – | – | –
CCC1OC(=O)C(C)C(OC2CC(C)(O)C(O)C(C)O2)C(C)C(OC2OC(C)CC(N(C)C)C2O)C(C)(O)CC(C)C(=O)C(C)C(O)C1C (centres unmarked) [Erythromycin D] | – | – | – | – | – | – | 3.12 (≈ 4.43 µM) | – | – | – | – | – | – | – | 25 (≈ 35.5 µM) | 6.25 (≈ 8.88 µM) | – | in vitro activity [1]: exhibit in vitro activity; MIC (Strep. faec. 006): 0.39 µg/mL (≈ 0.554 µM); MIC (Neiss. Sicca 000): 6.25 µg/mL (≈ 8.88 µM); MIC (Hem. influ. 036): 50 µg/mL (≈ 71 µM); MIC (Staph. aureus 005; Staphylococcus aureus, 005, 24 h): 0.39 µg/mL (≈ 0.554 µM); MIC (Past. mult. 001): 6.25 µg/mL (≈ 8.88 µM); MIC (Strep. pneum. 012): 0.025 µg/mL (≈ 0.0355 µM); MIC (Strep. pyog. 203): 0.025 µg/mL (≈ 0.0355 µM); MIC (Staph. epid. 111): 0.2 µg/mL (≈ 0.284 µM); MIC (Staph. aureus 052; Staphylococcus aureus, 052, 24 h): 0.39 µg/mL (≈ 0.554 µM); stability at acid pH (stability at acid pH): fairly stable; ED50 (Strep pyogenes 203; po): 15 mg/kg; ED50 (Staph aureus 005; Staphylococcus aureus, 005, po): 57 mg/kg; in vivo activity (sensitive bacteria): exhibit in vivo activity
CCC(=O)OC1C(C)OC(OC2C(C)C(=O)OC(CC)C(C)C(O)C(C)C(=O)C(C)CC(C)(O)C(OC3OC(C)CC(N(C)C)C3O)C2C)CC1(C)OC(C)=O (centres unmarked) [3"-O-Acetyl-4"-O-propionylerythromycin D] | 0.78 (≈ 0.973 µM) | 12.5 (≈ 15.6 µM) | – | > 50 | 0.39 (≈ 0.486 µM) | 12.5 (≈ 15.6 µM) | – | 12.5 (≈ 15.6 µM) | 0.05 (≈ 0.0623 µM) | 0.05 (≈ 0.0623 µM) | 0.2 (≈ 0.249 µM) | 0.78 (≈ 0.973 µM) | – | – | 50 (≈ 62.3 µM) | – | 12.5 (≈ 15.6 µM) | –
CCC1OC(=O)C(C)C(OC2CC(C)(OC(C)=O)C(OC(C)=O)C(C)O2)C(C)C(OC2OC(C)CC(N(C)C)C2O)C(C)(O)CC(C)C(=O)C(C)C(O)C1C (centres unmarked) [3",4"-Di-O-acetylerythromycin D] | 1.56 (≈ 1.98 µM) | 25 (≈ 31.7 µM) | > 50 | > 50 | 1.56 (≈ 1.98 µM) | – | – | – | 0.1 (≈ 0.127 µM) | 0.1 (≈ 0.127 µM) | 0.39 (≈ 0.495 µM) | 3.12 (≈ 3.96 µM) | 15 | 27 | – | 50 (≈ 63.5 µM) | 12.5 (≈ 15.9 µM) | absorption via the oral route [2]: high degree of absorption
CC[C@H]1OC(=O)[C@H](C)[C@@H](O[C@H]2C[C@@](C)(OC)[C@@H](O)[C@H](C)O2)[C@H](C)[C@@H](O[C@@H]2O[C@H](C)C[C@H](N(C)C)[C@H]2O)[C@](C)(O)C[C@@H](C)C(=O)[C@H](C)[C@@H](O)[C@]1(C)O [Erythromycin A, reference compound] | – | – | – | – | – | – | – | – | – | – | – | – | 25 | 64 | – | – | – | –
